This passage reports IC50 results from US20210387966A1, “2-AMINO-N-HETEROARYL-NICOTINAMIDES AS NAV1.8 INHIBITORS” (Merck Sharp & Dohme Corp., priority 2018, published 2021).

Broadly, the IC50 is the midpoint of a concentration-inhibition curve.

T1 sequence (Q9Y5Y9 whole entry): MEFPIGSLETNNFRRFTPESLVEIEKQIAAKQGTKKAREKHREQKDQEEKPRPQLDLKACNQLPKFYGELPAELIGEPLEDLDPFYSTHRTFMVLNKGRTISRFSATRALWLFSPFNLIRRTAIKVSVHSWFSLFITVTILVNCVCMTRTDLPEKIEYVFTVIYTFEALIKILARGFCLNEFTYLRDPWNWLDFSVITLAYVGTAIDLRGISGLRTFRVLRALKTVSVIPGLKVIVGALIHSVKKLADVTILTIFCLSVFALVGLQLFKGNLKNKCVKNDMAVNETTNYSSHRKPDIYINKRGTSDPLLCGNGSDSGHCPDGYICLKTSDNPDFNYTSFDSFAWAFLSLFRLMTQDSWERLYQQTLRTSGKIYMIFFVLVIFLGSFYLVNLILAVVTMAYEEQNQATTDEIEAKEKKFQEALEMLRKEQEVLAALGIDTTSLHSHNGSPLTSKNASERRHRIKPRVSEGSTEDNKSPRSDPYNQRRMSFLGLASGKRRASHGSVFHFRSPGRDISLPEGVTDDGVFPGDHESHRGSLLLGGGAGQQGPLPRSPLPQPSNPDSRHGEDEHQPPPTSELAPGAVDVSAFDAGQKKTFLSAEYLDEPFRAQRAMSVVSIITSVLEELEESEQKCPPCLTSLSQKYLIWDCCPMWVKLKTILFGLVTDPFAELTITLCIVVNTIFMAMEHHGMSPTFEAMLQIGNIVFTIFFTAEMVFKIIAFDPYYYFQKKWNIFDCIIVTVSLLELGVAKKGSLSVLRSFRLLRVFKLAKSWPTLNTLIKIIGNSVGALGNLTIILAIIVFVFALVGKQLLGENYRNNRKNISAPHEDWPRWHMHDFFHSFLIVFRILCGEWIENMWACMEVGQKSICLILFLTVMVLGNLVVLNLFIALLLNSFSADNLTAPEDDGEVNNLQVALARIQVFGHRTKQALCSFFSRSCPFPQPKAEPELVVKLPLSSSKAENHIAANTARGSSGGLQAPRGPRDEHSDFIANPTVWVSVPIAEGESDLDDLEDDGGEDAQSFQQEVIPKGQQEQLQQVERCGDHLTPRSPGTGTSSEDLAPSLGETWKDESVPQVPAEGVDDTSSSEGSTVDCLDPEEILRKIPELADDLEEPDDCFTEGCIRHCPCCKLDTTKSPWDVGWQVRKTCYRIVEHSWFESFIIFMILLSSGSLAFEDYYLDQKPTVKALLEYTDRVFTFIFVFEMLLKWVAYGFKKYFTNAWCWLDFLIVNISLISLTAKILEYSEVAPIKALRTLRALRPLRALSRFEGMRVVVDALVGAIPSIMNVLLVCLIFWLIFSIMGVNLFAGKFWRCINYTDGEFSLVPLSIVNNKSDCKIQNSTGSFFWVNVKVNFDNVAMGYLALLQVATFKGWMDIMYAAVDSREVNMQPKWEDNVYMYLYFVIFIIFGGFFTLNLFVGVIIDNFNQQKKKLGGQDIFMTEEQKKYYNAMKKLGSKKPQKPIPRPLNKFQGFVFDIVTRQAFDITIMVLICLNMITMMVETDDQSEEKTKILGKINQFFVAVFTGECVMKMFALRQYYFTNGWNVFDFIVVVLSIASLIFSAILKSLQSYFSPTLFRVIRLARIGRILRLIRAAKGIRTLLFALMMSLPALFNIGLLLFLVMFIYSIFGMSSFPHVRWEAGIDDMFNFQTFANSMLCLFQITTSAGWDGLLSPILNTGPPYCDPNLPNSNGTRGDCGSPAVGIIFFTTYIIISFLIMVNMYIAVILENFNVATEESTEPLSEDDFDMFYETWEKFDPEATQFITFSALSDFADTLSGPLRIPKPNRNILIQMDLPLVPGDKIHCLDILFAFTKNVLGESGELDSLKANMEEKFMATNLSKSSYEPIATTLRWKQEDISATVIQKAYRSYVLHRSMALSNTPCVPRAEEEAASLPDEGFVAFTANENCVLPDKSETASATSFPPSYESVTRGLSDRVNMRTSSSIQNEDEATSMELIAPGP

This assay concerns the target T1, human Nav1.8 channels (Homo sapiens, UniProt Q9Y5Y9).
T1 construct: expressed in transfected cells
The assay is described as follows: Nav1.8 Qube automated patch-clamp assay. The note with it: human Nav1.8 stably expressed in HEK 293 cells; whole-cell voltage clamp, room temperature; resting or inactivated state not specified; read-out: IC50 values (nM) for Examples in the Nav1.8 Qube Assay. Type of assay: cell-based. The method, then: Compounds were tested on human Nav1.8 and Nav1.5 channels stably expressed in human embryo kidney (HEK) 293 cells. Sodium current measurements on Qube® were conducted as follows: automated 384-well patch-clamp assays on the Qube® platform (Sophion Biosciences) were used to measure the inhibition of sodium flow through human Nav1.8 and Nav1.5 channels. Whole-cell voltage-clamp recordings were performed in QChips® (Sophion Biosciences) at room temperature. Nav1.8 current measurements on Qube® were obtained as follows: Nav1.8 currents were elicited with a 10 second 1 Hertz (Hz) pulse train from a holding potential of −90 millivolts (mV), delivered to the cells once per minute in the control condition (DMSO only) and after compound addition. The 1 hertz pulse train stimulation consisted of ten test pulses to 10 millivolt (mV) for 20 milliseconds (ms), each of which was followed by a 980 millisecond repolarization to −67 millivolts. At the end of the 10 second pulse train stimulation, a second hyperpolarization step to −100 millivolt (mV) was used to recover Nav1.8 from fast inactivation. The peak currents elicited by the 1st and 10th test pulses were used to determine IC50 values for resting inhibition and inactivated state inhibition. Nav1.5 current measurements on Qube® were obtained as follows: Nav1.5 currents were elicited with a 20 second 3 Hertz pulse train in the control condition (DMSO only) and after compound addition. The pulse train consisted of sixty 20 millisecond test pulses to 0 millivolt from a holding potential of −80 millivolt (mV). The average peak currents elicited by the last 3 test pulses were used to determine IC50 values for Nav1.5 inhibition.
The following buffers were used for the Qube® recordings: External buffer for Nav1.8 Qube® recording: 150 NaCl, 2 CaCl2, 5 KCl, 1 Mg Cl2, 10 HEPES, 12 Dextrose; External buffer for Qube® Nav1.5 recording: 120 N-Methyl-D-Glucamine, 40 NaCl, 1 KCl, 2.7 CaCl2, 5 HEPES, 0.5 MgCl2: and Internal buffer for Qube® recording: 120 CsF, 30 CsCl, 10 EGTA, 5 HEPES, 5 NaF, 2 MgCl2.
For all Qube® experiments offline analysis was used to determine percent inhibition as a function of drug concentration. IC50 values were determined by fitting to the Hill equation.
For orientation: The patch-clamp technique gives a direct electrical read-out from membranes.
As to `NS(=O)(=O)c1cc(NC(=O)c2cc(C(F)(F)F)cnc2N2CC3CC(F)(F)C3C2)ccn1` (single isomer, unassigned) [Example 65, 2-((1S,5R or 1R,5S)-6,6-difluoro-3-azabicyclo[3.2.0]heptan-3-yl)-N-(2-sulfamoylpyridin-4-yl)-5-(trifluoromethyl)nicotinamide], the IC50 came to 94 nM.

For `Cc1nc(N2CCCC(F)(F)CC2)c(C(=O)Nc2cnn(S(C)(=O)=O)c2)cc1Cl` [Example 31, 5-chloro-2-(4,4-difluoroazepan-1-yl)-6-methyl-N-[1-(methylsulfonyl)-1H-pyrazol-4-yl]pyridine-3-carboxamide], the IC50 was found to be 4.1 nM.

Take `Cc1nc(N2CCC(F)(F)CC2)c(C(=O)Nc2ccnc(S(N)(=O)=O)c2)cc1F` [Example 178, 2-(4,4-difluoropiperidin-1-yl)-5-fluoro-6-methyl-N-(2-sulfamoylpyridin-4-yl)nicotinamide]: the IC50 amounted to 13 nM.

For the molecule `NS(=O)(=O)c1cc(NC(=O)c2cc(C(F)(F)F)cnc2N2CCC3OCCC32)ccn1` (stereo not drawn) [Example 96, 2-(2,3,3,a,5,6,6a-hexahydrofuro[3,2-b]pyrrol-4-yl)-N-(2-sulfamoyl-4-pyridyl)-5-(trifluoromethyl)pyridine-3-carboxamide], the concentration for half-maximal inhibition (IC50) is 1620 nM.

In the case of `CC12CCN(c3ncc(C(F)(F)F)cc3C(=O)Nc3ccnc(S(N)(=O)=O)c3)CC1C2(F)F` (single isomer, unassigned) [Example 62, 2-[(1R,6R or 1S,6S)-7,7-difluoro-6-methyl-3-azabicyclo[4.1.0]heptan-3-yl]-N-(2-sulfamoyl-4-pyridyl)-5-(trifluoromethyl)pyridine-3-carboxamide], the IC50 is 105 nM.

Turning to `O=C(Nc1cncc(C(F)(F)F)c1)c1cc(C(F)(F)F)cnc1N1CCCCCC1` [Example 200, 2-(azepan-1-yl)-5-(trifluoromethyl)-N-[5-(trifluoromethyl)-3-pyridyl]pyridine-3-carboxamide], the IC50 was 9670 nM.

For the molecule `Cc1nc(N2CCCCC2)c(C(=O)Nc2cncc(S(N)(=O)=O)c2)c(C)c1Cl` [Example 191, 5-chloro-4,6-dimethyl-2-(1-piperidyl)-N-(5-sulfamoyl-3-pyridyl)pyridine-3-carboxamide], the IC50 was 124 nM.

As to `NS(=O)(=O)c1cc(NC(=O)c2cc(C(F)(F)F)cnc2N2CCC(F)(F)CCC2=O)ccn1` [Example 28, 2-(5,5-Difluoro-2-oxoazepan-1-yl)-N-(2-sulfamoylpyridin-4-yl)-5-(trifluoromethyl)nicotinamide], the IC50 came out at 1300 nM.

As to `N#CC1CCN(c2ncc(C(F)(F)F)cc2C(=O)Nc2ccnc(S(N)(=O)=O)c2)C1` (single isomer, unassigned) [Example 130, (R or S)-2-(3-cyanopyrrolidin-1-yl)-N-(2-sulfamoylpyridin-4-yl)-5-(trifluoromethyl)nicotinamide], the IC50 stood at 3880 nM.

On to `COc1ccc(C(=O)Nc2ccnc(S(N)(=O)=O)c2)c(N2CCCC(F)(F)CC2)n1` [Example 142, 2-(4,4-difluoroazepan-1-yl)-6-methoxy-N-(2-sulfamoylpyridin-4-yl)nicotinamide], for which the IC50 was 29 nM.

In the case of `NS(=O)(=O)c1cc(NC(=O)c2cc(C(F)(F)F)cnc2N2CC(Oc3ccc(C(F)(F)F)cc3)C2)ccn1` [Example 97, N-(2-sulfamoyl-4-pyridyl)-5-(trifluoromethyl)-2-[3-[4-(trifluoromethyl)phenoxy]azetidin-1-yl]pyridine-3-carboxamide], the IC50 was 1900 nM.

`NS(=O)(=O)c1cc(NC(=O)c2cc(C3CC3)c(C3CC3)nc2N2CCC(F)(F)CC2)ccn1` [Example 12, 5,6-dicyclopropyl-2-(4,4-difluoropiperidin-1-yl)-N-(2-sulfamoylpyridin-4-yl)nicotinamide]: the IC50 amounted to 94 nM.

For `CC1CN(c2ncc(C(F)(F)F)cc2C(=O)Nc2ccnc(S(N)(=O)=O)c2)CCC(C(F)(F)F)O1` (single isomer, unassigned) [Example 122, 2-((2R,7R or 2S,7S)-2-methyl-7-(trifluoromethyl)-1,4-oxazepan-4-yl)-N-(2-sulfamoylpyridin-4-yl)-5-(trifluoromethyl)nicotinamide], the IC50 came to 20 nM.

Take `CC1CN(c2ncc(C(F)(F)F)cc2C(=O)Nc2ccnc(S(C)(=O)=O)c2)CCC1(F)F` (single isomer, unassigned) [Example 149, 2-[(3S or 3R)-4,4-difluoro-3-methyl-1-piperidyl]-N-(2-methylsulfonyl-4-pyridyl)-5-(trifluoro-methyl)pyridine-3-carboxamide]: the IC50 turned out to be 57 nM.

On to `Cc1nc(N2CCC3(CC2)CC3)c(C(=O)Nc2ccnc(S(N)(=O)=O)c2)c(C)c1Cl` [Example 202, 5-chloro-4,6-dimethyl-2-(6-azaspiro[2.5]octan-6-yl)-N-(2-sulfamoylpyridin-4-yl)nicotinamide], for which the IC50 amounted to 1.9 nM.

Turning to `CCS(=O)(=O)c1cc(NC(=O)c2cc(C(F)(F)F)cnc2N2CCCCCC2)ccn1` [Example 198, 2-(azepan-1-yl)-N-(2-ethylsulfonyl-4-pyridyl)-5-(trifluoro-methyl)pyridine-3-carboxamide], the IC50 amounted to 425 nM.

In the case of `NS(=O)(=O)c1cc(NC(=O)c2cc(C(F)(F)F)cnc2N2CCCCCC2)ccn1` [Example 139, 2-(azepan-1-yl)-N-(2-sulfamoyl-4-pyridyl)-5-(trifluoromethyl)pyridine-3-carboxamide], the half-maximal inhibitory concentration (IC50) came out at 16 nM.

As for `CC1(C)CN(c2ncc(C(F)(F)F)cc2C(=O)Nc2ccnc(S(N)(=O)=O)c2)CCN1CC(F)(F)F` [Example 87, 2-[3,3-dimethyl-4-(2,2,2-trifluoroethyl)piperazin-1-yl]-N-(2-sulfamoyl-4-pyridyl)-5-(trifluoromethyl)pyridine-3-carboxamide], the IC50 was 223 nM.

Turning to `Cc1cc(Cl)nc(N2CCC(F)(F)CC2)c1C(=O)Nc1ccnc(S(N)(=O)=O)c1` [Example 170, 6-chloro-2-(4,4-difluoropiperidin-1-yl)-4-methyl-N-(2-sulfamoylpyridin-4-yl)nicotinamide], the IC50 was 24 nM.

`NS(=O)(=O)c1cc(NC(=O)c2cc(C(F)(F)F)cnc2N2CCCC(Cc3ccc(C(F)(F)F)cc3)C2)ccn1` (stereo not drawn) [Example 83, N-(2-sulfamoyl-4-pyridyl)-5-(trifluoromethyl)-2-[3-[[4-(trifluoromethyl)phenyl]methyl]-1-piperidyl]pyridine-3-carboxamide]: the IC50 worked out at 114 nM.

For the molecule `CC1CC(F)(F)CCN1c1ncc(C(F)(F)F)cc1C(=O)Nc1ccnc(S(N)(=O)=O)c1` (single isomer, unassigned) [Example 74, (S or R)-2-(4,4-difluoro-2-methylpiperidin-1-yl)-N-(2-sulfamoylpyridin-4-yl)-5-(trifluoromethyl)nicotinamide], the IC50 amounted to 319 nM.

For `CC12CCN(c3ncc(C(F)(F)F)cc3C(=O)Nc3ccnc(S(N)(=O)=O)c3)CC1C2(F)F` (single isomer, unassigned) [Example 61, 2-[(1S,6S or 1R,6R)-7,7-difluoro-6-methyl-3-azabicyclo[4.1.0]heptan-3-yl]-N-(2-sulfamoyl-4-pyridyl)-5-(trifluoromethyl)pyridine-3-carboxamide], the IC50 was found to be 15 nM.

Take `NS(=O)(=O)c1cc(NC(=O)c2cc(C(F)(F)F)cnc2N2CC(F)(F)C(F)(F)C2)ccn1` [Example 92, N-(2-sulfamoyl-4-pyridyl)-2-(3,3,4,4-tetrafluoropyrrolidin-1-yl)-5-(trifluoromethyl)pyridine-3-carboxamide]: the IC50 came out at 659 nM.

With `NS(=O)(=O)c1cc(NC(=O)c2cc(C(F)(F)F)cnc2N2CCc3sccc3C2)ccn1` [Example 79, 2-(6,7-dihydro-4H-thieno[3.2-c]pyridin-5-yl)-N-(2-sulfamoyl-4-pyridyl)-5-(trifluoromethyl)pyridin-3-carboxamide], the IC50 was determined as 21 nM.

Consider `CS(=O)(=O)c1cc(NC(=O)c2cc(C(F)(F)F)cnc2N2C[C@H]3CC[C@H]3C2)ccn1` [Example 152, 2-[(1R,5S)-3-azabicyclo[3.2.0]heptan-3-yl]-N-(2-methylsulfonyl-4-pyridyl)-5-(trifluoro-methyl)pyridine-3-carboxamide], for which the half-maximal inhibitory concentration (IC50) stood at 155 nM.

In the case of `CC1(C)c2cc(F)ccc2CN1c1ncc(C(F)(F)F)cc1C(=O)Nc1ccnc(S(N)(=O)=O)c1` [Example 113, 2-(6-fluoro-1,1-dimethyl-isoindolin-2-yl)-N-(2-sulfamoyl-4-pyridyl)-5-(trifluoromethyl)pyridine-3-carboxamide], the concentration for half-maximal inhibition (IC50) was determined as 9330 nM.

For `COc1cc(NC(=O)c2cc(C(F)(F)F)cnc2N2CCCC(F)(F)CC2)ccn1` [Example 146, 2-(4,4-difluoroazepan-1-yl)-N-(2-methoxy-4-pyridyl)-5-(trifluoro-methyl)pyridine-3-carboxamide], the IC50 was determined as 177 nM.
